Experimental data reported in PMC3914206.

How the values were obtained:
Format in all cases: binding
Set-up in all cases: KINOMEscan: ABL1(F317L)-phosphorylated / KINOMEscan: ABL1(H396P)-nonphosphorylated / KINOMEscan: ABL1(H396P)-phosphorylated / KINOMEscan: ABL1(M351T)-phosphorylated / KINOMEscan: ABL1(T315I)-phosphorylated / KINOMEscan: ABL1-nonphosphorylated / KINOMEscan: ABL1-phosphorylated / KINOMEscan: ACVR2A / KINOMEscan: ACVR2B / KINOMEscan: ADCK3 / KINOMEscan: ADCK4 / KINOMEscan: AKT1 / KINOMEscan: AKT3 / KINOMEscan: ALK / KINOMEscan: ARK5 / KINOMEscan: AURKA / KINOMEscan: AURKC / KINOMEscan: BIKE / KINOMEscan: BMPR1A / KINOMEscan: BMPR1B / KINOMEscan: BMX / KINOMEscan: BRK / KINOMEscan: BRSK1 / KINOMEscan: BRSK2 / KINOMEscan: CAMK1 / KINOMEscan: CAMK1D / KINOMEscan: CAMK1G / KINOMEscan: CAMK2A / KINOMEscan: CAMK2B / KINOMEscan: AAK1 / KINOMEscan: CAMK2D / KINOMEscan: CAMK2G / KINOMEscan: ABL1(F317I)-nonphosphorylated / KINOMEscan: ABL1(F317I)-phosphorylated / KINOMEscan: ABL1(F317L)-nonphosphorylated: unit: % Ctrl
Settings in all cases: Compound Concentration 10 µM
panel of 442 kinases [1] = target: T1, panel of 442 kinases (Homo sapiens, UniProt Q13555)
T1 construct: purchased KINOMEscan
Description: (§1) We assessed the selectivity of members of this scaffold using the KINOMEscan methodology across a near comprehensive panel of 442 kinases [[18,27]].

panel of 442 kinases [2] = target: T2, panel of 442 kinases (Homo sapiens, UniProt O60674)
T2 construct: purchased KINOMEscan
Description: as §1

panel of 442 kinases [3] = target: T3, panel of 442 kinases (Homo sapiens, UniProt P00519, Y253F)
T3 construct: purchased KINOMEscan
Description: as §1

panel of 442 kinases [4] = target: T4, panel of 442 kinases (Homo sapiens, UniProt P50613)
T4 construct: purchased KINOMEscan
Description: as §1

T1 sequence (Q13555 whole entry): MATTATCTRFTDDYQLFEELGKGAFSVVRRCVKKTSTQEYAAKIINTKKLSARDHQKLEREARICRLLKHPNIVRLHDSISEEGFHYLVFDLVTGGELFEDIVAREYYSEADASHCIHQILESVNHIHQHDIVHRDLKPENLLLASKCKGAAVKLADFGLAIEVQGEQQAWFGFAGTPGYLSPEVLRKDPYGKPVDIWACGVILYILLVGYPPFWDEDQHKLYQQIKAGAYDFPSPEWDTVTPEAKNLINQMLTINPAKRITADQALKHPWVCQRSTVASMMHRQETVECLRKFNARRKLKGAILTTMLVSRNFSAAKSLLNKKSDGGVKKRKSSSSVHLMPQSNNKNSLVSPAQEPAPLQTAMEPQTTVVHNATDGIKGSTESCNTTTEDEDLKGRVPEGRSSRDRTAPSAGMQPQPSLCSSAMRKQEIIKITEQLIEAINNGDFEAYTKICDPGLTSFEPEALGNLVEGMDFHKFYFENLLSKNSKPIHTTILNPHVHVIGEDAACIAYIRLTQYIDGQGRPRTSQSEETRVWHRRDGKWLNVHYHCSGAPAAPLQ
T4 sequence (P50613 whole entry): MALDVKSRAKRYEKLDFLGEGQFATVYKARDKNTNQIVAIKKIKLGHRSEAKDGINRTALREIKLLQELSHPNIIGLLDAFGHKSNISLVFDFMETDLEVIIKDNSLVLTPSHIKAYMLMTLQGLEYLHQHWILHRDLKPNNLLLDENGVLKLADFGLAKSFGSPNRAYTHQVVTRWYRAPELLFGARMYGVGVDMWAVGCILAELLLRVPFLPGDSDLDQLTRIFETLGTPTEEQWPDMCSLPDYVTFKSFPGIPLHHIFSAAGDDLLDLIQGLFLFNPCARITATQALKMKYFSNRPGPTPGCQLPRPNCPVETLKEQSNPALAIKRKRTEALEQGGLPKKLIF
T2 sequence (O60674 whole entry): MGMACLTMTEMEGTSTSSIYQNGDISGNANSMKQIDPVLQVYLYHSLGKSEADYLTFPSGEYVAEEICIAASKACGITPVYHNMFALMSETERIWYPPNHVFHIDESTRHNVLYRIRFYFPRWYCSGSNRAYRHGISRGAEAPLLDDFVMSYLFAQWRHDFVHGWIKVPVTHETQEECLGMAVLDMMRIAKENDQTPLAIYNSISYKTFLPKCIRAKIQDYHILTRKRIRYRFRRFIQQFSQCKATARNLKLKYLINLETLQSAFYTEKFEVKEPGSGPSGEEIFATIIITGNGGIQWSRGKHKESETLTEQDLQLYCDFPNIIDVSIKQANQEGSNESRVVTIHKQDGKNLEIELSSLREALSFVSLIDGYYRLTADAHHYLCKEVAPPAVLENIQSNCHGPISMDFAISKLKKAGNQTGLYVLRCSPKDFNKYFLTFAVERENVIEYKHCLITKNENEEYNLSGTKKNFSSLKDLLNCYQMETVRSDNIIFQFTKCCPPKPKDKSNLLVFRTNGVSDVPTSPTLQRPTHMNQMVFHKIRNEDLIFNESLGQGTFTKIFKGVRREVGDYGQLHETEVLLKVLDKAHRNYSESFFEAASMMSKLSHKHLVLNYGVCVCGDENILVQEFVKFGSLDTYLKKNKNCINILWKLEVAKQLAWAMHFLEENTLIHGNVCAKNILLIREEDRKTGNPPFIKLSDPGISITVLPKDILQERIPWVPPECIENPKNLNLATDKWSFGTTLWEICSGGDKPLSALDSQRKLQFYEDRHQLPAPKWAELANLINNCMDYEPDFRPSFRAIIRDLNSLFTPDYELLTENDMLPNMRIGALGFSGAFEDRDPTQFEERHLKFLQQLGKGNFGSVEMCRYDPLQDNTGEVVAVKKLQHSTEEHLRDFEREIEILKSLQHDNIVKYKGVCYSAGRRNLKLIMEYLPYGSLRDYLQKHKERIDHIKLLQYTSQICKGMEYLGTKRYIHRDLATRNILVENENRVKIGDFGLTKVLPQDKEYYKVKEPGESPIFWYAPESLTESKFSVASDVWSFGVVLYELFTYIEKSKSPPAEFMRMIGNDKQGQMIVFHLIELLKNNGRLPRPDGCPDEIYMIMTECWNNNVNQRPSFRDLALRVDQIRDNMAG

Row | Compound | KINOMEscan: CAMK2G (panel of 442 kinases [1]) | KINOMEscan: JAK2(JH1domain-catalytic) (panel of 442 kinases [2]) | KINOMEscan: ABL1(Y253F)-phosphorylated (panel of 442 kinases [3]) | KINOMEscan: CDK7 (panel of 442 kinases [4])
1 | CCOc1cc(C(=O)N2CCC(N3CCN(C)CC3)CC2)ccc1Nc1ncc2c(n1)N(C1CCCC1)c1ccccc1C(=O)N2C [Compound 26] | 94 | 100 | 100 | 57
2 | COc1cc(C(=O)N2CCC(N3CCN(C)CC3)CC2)ccc1Nc1ncc2c(n1)N(C1CCCC1)c1ccccc1C(=O)N2C [Compound 25, 11-cyclopentyl-2-((2-methoxy-4-(4-(4-methylpiperazin-1-yl)piperidine-1-carbonyl)phenyl)amino)-5-methyl-5H-benzo[e]pyrimido[5,4-b][1,4]diazepin-6(11H)-one] | 98 | 95 | 60 | 18
3 | COc1cc(C(=O)N2CCC(N3CCN(C)CC3)CC2)ccc1Nc1ncc2c(n1)N1CCc3cccc(c31)C(=O)N2C [Compound 24] | 76 |  |  | 
4 | COc1cc(C(=O)N2CCC(N3CCN(C)CC3)CC2)ccc1Nc1ncc2c(n1)N(C)c1ccccc1C(=O)N2C [15 (LRRK2-IN-1)] | 47 | 70 | 89 | 86
